Data published in US20160108039A1, “TRIAZOLOPYRIDINES AS THROMBIN INHIBITORS FOR THE TREATMENT OF THROMBOEMBOLIC DISEASES” (BAYER PHARMA AKTIENGESELLSCHAFT, priority 2013, published 2016).

Assays:
thrombin [1] = biological target: T1, thrombin (Homo sapiens, UniProt P00734); experiment: Measurement of the thrombin inhibition in buffer; format: biochemical; settings: human thrombin 0.06 nmol/l in Tris buffer pH 7.4, 22° C., substrate Boc-Asp(OBzl)-Pro-Arg-AMC; in some cases means of individual determinations
Protocol: To determine the thrombin inhibition of the substances listed above, a biochemical test system is constructed in which the conversion of a thrombin substrate is used for determining the enzymatic activity of human thrombin. Here, thrombin cleaves aminomethylcoumarin, which is measured fluorescently, from the peptic substrate. The determinations are carried out in microtitre plates.
Substances to be tested are dissolved in various concentrations in dimethyl sulphoxide and incubated for 15 min with human thrombin (0.06 nmol/l dissolved in 50 mmol/l of Tris buffer [C,C,C-tris(hydroxymethyl)aminomethane], 100 mmol/l of sodium chloride, 0.1% BSA [bovine serum albumin], pH 7.4) at 22° C. The substrate (5 μmol/l Boc-Asp(OBzl)-Pro-Arg-AMC from Bachem) is then added. After 30 min of incubation, the sample is excited at a wavelength of 360 nm and the emission is measured at 460 nm. The measured emissions of the test mixtures with test substance are compared to the control mixtures without test substance (only dimethyl sulphoxide instead of test substance in dimethyl sulphoxide) and IC50 values are calculated from the concentration/activity relationships. Representative activity data from this test are given in Table 1 below (in some cases as means of individual determinations): […]

thrombin [2] = biological target: T1, thrombin; experiment: Thrombin-inhibitory activity in plasma samples (ecarin-activated); format: biochemical; settings: citrate plasma, ecarin activation, fluorogenic thrombin substrate; read at about 70% of maximum signal (about 12 min); in some cases means
Protocol: To determine the inhibition of thrombin in plasma samples, plasma prothrombinase is activated by ecarin. Thrombin activity and/or its inhibition by potential inhibitors is/are then measured fluorescently by addition of a substrate.
The substances to be tested are dissolved in various concentrations in dimethyl sulphoxide and diluted with water. In white 96-well flat-bottomed plates, 20 μl of substance dilution are mixed with 20 μl of ecarin solution (ecarin reagent, from Sigma E-0504, final concentration 20 mU per reaction) in Ca buffer (200 mM Hepes+560 mM sodium chloride+10 mM calcium chloride+0.4% PEG) or with 20 μl of Ca buffer (as unstimulated control). Furthermore, 20 μl of fluorogenic thrombin substrate (from Bachem 1-1120, final concentration 50 μmol/l) and 20 μl of citrate plasma (from Octapharma) are added, and the mixture is homogenized well. The plate is measured in a SpectraFluorplus Reader using a 360 nm excitation filter and a 465 nm emission filter every minute over 20 minutes. […] Representative activity data from this test are given in Table 2 below (in some cases as means of individual determinations): […]

IC50 (thrombin [1]) [µM]	IC50 (thrombin [2]) [µM]	Compound
0.029	0.034	COc1cc(C(=O)N2CC(C)OCC23CC(O)C3)cn2nc(NC(CF)c3cccc(Cl)c3)nc12 (single isomer, unassigned) [Example 23, (2-{[1-(3-Chlorophenyl)-2-fluoroethyl]amino}-8-methoxy[1,2,4]triazolo[1,5-a]pyridin-6-yl)[(cis)-2-hydroxy-7-methyl-8-oxa-5-azaspiro[3.5]non-5-yl]methanone]
0.0099	0.019	COc1cc(C(=O)N2CC(C)OCC23CC(O)C3)cn2nc(NC(CF)c3cccc(Cl)c3)nc12 (single isomer, unassigned) [Example 24, (2-{[1-(3-Chlorophenyl)-2-fluoroethyl]amino}-8-methoxy[1,2,4]triazolo[1,5-a]pyridin-6-yl) [(trans)-2-hydroxy-7-methyl-8-oxa-5-azaspiro[3.5]non-5-yl]methanone]
0.028	0.055	COc1cc(C(=O)N2CC(C)OCC23CC(O)C3)cn2nc(NC(CF)c3cccc(Cl)c3)nc12 (single isomer, unassigned) [Example 25, (2-{[1-(3-Chlorophenyl)-2-fluoroethyl]amino}-8-methoxy[1,2,4]triazolo[1,5-a]pyridin-6-yl) [(trans)-2-hydroxy-7-methyl-8-oxa-5-azaspiro[3.5]non-5-yl]methanone]
0.062	0.056	COc1cc(C(=O)N2CC(C)OCC2(C)C)cn2nc(NCc3cccc(Cl)c3)nc12 (single isomer, unassigned) [Example 27]
0.054	0.067	COc1cc(C(=O)N2CC(C)OCC2(C)CO)cn2nc(NCc3cccc(Cl)c3)nc12 (single isomer, unassigned) [Example 29, {2-[(3-Chlorobenzyl)amino]-8-methoxy[1,2,4]triazolo[1,5-a]pyridin-6-yl}[5-(hydroxymethyl)-2,5-dimethylmorpholin-4-yl]methanone]
0.045	0.051	COc1cc(C(=O)N2CC(C)OCC2(C)CO)cn2nc(NCc3cccc(Cl)c3)nc12 (single isomer, unassigned) [Example 30, {2-[(3-Chlorobenzyl)amino]-8-methoxy[1,2,4]triazolo[1,5-a]pyridin-6-yl}[5-(hydroxymethyl)-2,5-dimethylmorpholin-4-yl]methanone]
0.0045	0.011	COc1cc(C(=O)N2CC(C)(CCO)OCC2(C)C)cn2nc(NCc3cccc(Cl)c3)nc12 (single isomer, unassigned) [Example 33, {2-[(3-Chlorobenzyl)amino]-8-methoxy[1,2,4]triazolo[1,5-a]pyridin-6-yl}[2-(2-hydroxyethyl)-2,5,5-trimethylmorpholin-4-yl]methanone]
0.0039	0.019	COc1cc(C(=O)N2CC(C)(CC(C)O)OCC2(C)C)cn2nc(NCc3cccc(Cl)c3)nc12 (single isomer, unassigned) [Example 34, {2-[(3-Chlorobenzyl)amino]-8-methoxy[1,2,4]triazolo[1,5-a]pyridin-6-yl}[2-(2-hydroxypropyl)-2,5,5-trimethylmorpholin-4-yl]methanone]
0.0024	0.0087	COc1cc(C(=O)N2CC(C)(CC(C)O)OCC2(C)C)cn2nc(NCc3cccc(Cl)c3)nc12 (single isomer, unassigned) [Example 35, {2-[(3-Chlorobenzyl)amino]-8-methoxy[1,2,4]triazolo[1,5-a]pyridin-6-yl}[2-(2-hydroxypropyl)-2,5,5-trimethylmorpholin-4-yl]methanone]
0.054	0.325	COc1cc(C(=O)N2CC(C)(CC(C)O)OCC2(C)C)cn2nc(NCc3cccc(Cl)c3)nc12 (single isomer, unassigned) [Example 36, {2-[(3-Chlorobenzyl)amino]-8-methoxy[1,2,4]triazolo[1,5-a]pyridin-6-yl}[2-(2-hydroxypropyl)-2,5,5-trimethylmorpholin-4-yl]methanone]
0.067	0.112	COc1cc(C(=O)N2CC(C)(CC(C)O)OCC2(C)C)cn2nc(NCc3cccc(Cl)c3)nc12 (single isomer, unassigned) [Example 37, {2-[(3-Chlorobenzyl)amino]-8-methoxy[1,2,4]triazolo[1,5-a]pyridin-6-yl}[2-(2-hydroxypropyl)-2,5,5-trimethylmorpholin-4-yl]methanone]
0.03	0.034	COc1cc(C(=O)N2CC(C)(CC(C)O)OCC2(C)C)cn2nc(NCc3cccc(Cl)c3)nc12 (single isomer, unassigned) [Example 39, {2-[(3-Chlorobenzyl)amino]-8-methoxy[1,2,4]triazolo[1,5-a]pyridin-6-yl}[2-(2-hydroxypropyl)-2,5,5-trimethylmorpholin-4-yl]methanone]
0.031	0.075	COc1cc(C(=O)N2CC(C)OCC2C(C)(C)O)cn2nc(NCc3cccc(Cl)c3)nc12 (single isomer, unassigned) [Example 40, {2-[(3-Chlorobenzyl)amino]-8-methoxy[1,2,4]triazolo[1,5-a]pyridin-6-yl}[5-(2-hydroxypropan-2-yl)-2-methylmorpholin-4-yl]methanone]
0.0013	0.0041	COc1cc(C(=O)N2CC(C)(CC(C)O)OC[C@H]2C)cn2nc(NCc3cccc(Cl)c3)nc12 (single isomer, unassigned) [Example 41]
0.019	0.024	COc1cc(C(=O)N2CC(C)(C)OCC2CC(C)O)cn2nc(NCc3cccc(Cl)c3)nc12 (single isomer, unassigned) [Example 49, {2-[(3-Chlorobenzyl)amino]-8-methoxy[1,2,4]triazolo[1,5-a]pyridin-6-yl}[5-(2-hydroxypropyl)-2,2-dimethylmorpholin-4-yl]methanone]
0.0069	0.024	COc1cc(C(=O)N2CC(C)(CCO)OCC2CF)cn2nc(NCc3cccc(Cl)c3)nc12 (single isomer, unassigned) [Example 53, {2-[(3-Chlorobenzyl)amino]-8-methoxy[1,2,4]triazolo[1,5-a]pyridin-6-yl}[5-(fluoromethyl)-2-(2-hydroxyethyl)-2-methylmorpholin-4-yl]methanone]
0.1	0.611	COc1cc(C(=O)N2CC(C)(CCO)OCC2CF)cn2nc(NCc3cccc(Cl)c3)nc12 (single isomer, unassigned) [Example 54, {2-[(3-Chlorobenzyl)amino]-8-methoxy[1,2,4]triazolo[1,5-a]pyridin-6-yl}[5-(fluoromethyl)-2-(2-hydroxyethyl)-2-methylmorpholin-4-yl]methanone]
0.0096	0.065	COc1cc(C(=O)N2CC(C)(CCO)OCC2C(F)F)cn2nc(NCc3cccc(Cl)c3)nc12 (single isomer, unassigned) [Example 55, {[(3-Chlorobenzyl)amino]-8-methoxy[1,2,4]triazolo[1,5-a]pyridin-6-yl}[5-(difluoromethyl)-2-(2-hydroxyethyl)-2-methylmorpholin-4-yl]methanone]
0.0013	0.0059	COc1cc(C(=O)N2CC(C)(CC(C)O)OCC2CF)cn2nc(NCc3cccc(Cl)c3)nc12 (single isomer, unassigned) [Example 56, {[(3-Chlorobenzyl)amino]-8-methoxy[1,2,4]triazolo[1,5-a]pyridin-6-yl}[5-(fluoromethyl)-2-(2-hydroxypropyl)-2-methylmorpholin-4-yl]methanone]
0.0083	0.011	CCC1C(=O)N2CCC2CN1C(=O)c1cc(OC)c2nc(NCc3cccc(Cl)c3)nn2c1 (single isomer, unassigned) [Example 59, 4-({2-[(3-Chlorobenzyl)amino]-8-methoxy[1,2,4]triazolo[1,5-a]pyridin-6-yl}carbonyl)-3-ethyl-1,4-diazabicyclo[4.2.0]octan-2-one]
0.026	0.023	COCC1C(=O)N2CCC2CN1C(=O)c1cc(OC)c2nc(NCc3cccc(Cl)c3)nn2c1 (single isomer, unassigned) [Example 60, 4-({2-[(3-Chlorobenzyl)amino]-8-methoxy[1,2,4]triazolo[1,5-a]pyridin-6-yl}carbonyl)-3-(methoxymethyl)-1,4-diazabicyclo[4.2.0]octan-2-one]
